Data reported in patent US20030086923A1, “Method for the prevention and/or treatment of atherosclerosis” (priority 1999, published 2003).
Values belong to the compound of their own block, whether it stands above or below them.

Experiments:
[1] = test system: THP-1 macrophages; assay: Stimulation of cholesterol efflux from cultured THP-1 macrophages; type: cell-based, human; conditions: for EC50: Homo sapiens, THP-1
Excerpt: Stimulation of Cholesterol Efflux from Cultured Cells
Patients with Tangier disease have mutations in the ABC1 gene and have very low HDL levels. Cultured cells from these patients are defective in cholesterol efflux (Francis et al. (1995) J. Clin. Invest. 96:78-87). Therefore, induction of ABC1 mRNA should lead to increased cholesterol efflux and increased HDL levels (Francis et al. (1999) Clinica Chimica Acta 286:219-230). TIIP-1 cells were used to determine whether induction of ABC1 mRNA by Compound 1 would increase cholesterol efflux. Specifically, cultured human THP-1 cells were stimulated to differentiate into macrophages by incubation with 100 nM tetradecanoyl phorbol acetate for three days, as described above. After differentiation, the TUP-1 macrophages were labeled with ^3H-cholesterol by incubation for 24 hours with 10 μCi/ml ^3H-cholesterol in Complete RPMI media containing 0.1% lipid-free bovine serum albumin (BSA) plus 100 nM tetradecanoyl phorbol acetate. After labeling, the cells were incubated for 24 hours in Complete RPMI media with 0.1% lipid-free bovine serum albumin (BSA) to allow for equilibration of cellular cholesterol pools. Cholesterol efflux was then measured over the following 24 hours by incubating the cells in Complete RPMI media containing 10 μg/ml of apoA-I as cholesterol acceptor, and either Compound 1 or DMSO as control.

[2] = test system: LXR; assay: Activity on LXR (assay not specified)
[3] = test system: ABC1 mRNA; assay: Induction of ABC1 mRNA levels in THP-1 macrophages; type: cell-based; conditions: Homo sapiens, ABC-1, 15 μM, 6 hours, vs DMSO control, read-out: Fold Induction of ABC1 mRNA (Mean ± SEM)
Method: Induction of ABC1 mRNA levels
Cultured human THP-1 cells were used. All cell culture incubations were performed at 37° C. under 95% air/5% carbon dioxide. Cells were grown in Complete RPMI medium plus 10% FCS (Fetal Calf Serum). Complete RPMI medium is defined as RPMI medium (Sigma Cat.# R8005) containing […], 1 mM Na Pyruvate, 2 mM L-Glutamine, and Antibiotic-Antimyotic Solution (Sigma Cat.# A9909: 100U/ml Penicillin, 0.1 mg/ml Streptomycin, 0.251l/ml Amphotericin B). Cells were differentiated into macrophages by incubation in Complete RPMI medium plus 10% FCS (Fetal Calf Serum) plus 100 nM tetradecanoyl phorbol acetate for three days. After differentiation, the THP-1 macrophages were incubated in Complete RPMI medium plus 10% FCS (Fetal Calf Serum) with the test LXR agonist. After 6 hours at 37° C., the cells were harvested and total RNA prepared using the phenol/guanidine isothiocyanate method as supplied and described by Molecular Research Center, Inc. (TRI REAGENTφ Cat. No. TR 118). ABC1 mRNA levels in the total RNA were measured using the TaqMan® mRNA quantitation system, following protocols published by the manufacturer (Perkin-Elmer). The oligonucleotide PCR primers used to detect ABC1 were:
The oligonucleotide probe used was:
ABC1 mRNA levels in each sample were normalized to the mRNA levels for the 23 kDa highly basic protein. […]

[4] = biological target: T1, human GST-LXRβ ligand binding domain receptor (Homo sapiens, UniProt P55055); assay: Radioligand competition binding scintillation proximity assay, LXRβ
T1 construct: human LXRβ (amino acids 149-455) were subcloned into the pGEX-KT expression vector; made in house; host or cells: E. coli (pGEX-KT vector)
T1 sequence (P55055 149-455): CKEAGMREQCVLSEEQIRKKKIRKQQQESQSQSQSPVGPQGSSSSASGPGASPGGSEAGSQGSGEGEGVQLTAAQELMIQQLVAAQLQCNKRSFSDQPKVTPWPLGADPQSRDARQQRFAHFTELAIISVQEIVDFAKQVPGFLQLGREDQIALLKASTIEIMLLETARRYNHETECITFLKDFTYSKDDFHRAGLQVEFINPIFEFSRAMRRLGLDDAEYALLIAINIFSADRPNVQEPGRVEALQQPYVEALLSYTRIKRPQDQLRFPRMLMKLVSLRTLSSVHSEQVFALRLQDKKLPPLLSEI
Excerpt: (§1) Radioligand Competition Binding Scintillation Proximity Assays:
(§2) Preparation of Recombinant Human LXRα and LXRβ:
(§3) Human LXRα and LXRβ were expressed as GST-fusion proteins in E. coli. The ligand binding domain cDNAs for human LXRα (amino acids 164-447) and human LXRβ (amino acids 149-455) were subcloned into the pGEX-KT expression vector (Pharmacia). E. coli containing the respective plasmids were propagated, induced, and harvested by centrifugation. The resuspended pellet was broken in a French press and debris was removed by centrifugation. Recombinant human LXR receptors were purified by affinity chromatography on glutathione sepharose and receptor was eluted with glutathione. Glycerol was added to a final concentration of 50% to stabilize the receptor and aliquots were stored at −80° C.
(§4) After incubation for ˜16 h at 15° C. with shaking, the assay plates were counted in a Packard Topcount.

[5] = biological target: T2, human GST-LXRα receptor (Homo sapiens, UniProt Q13133); assay: Radioligand competition binding scintillation proximity assay, LXRα
T2 construct: made in house; host or cells: E. coli (pGEX-KT vector)
T2 sequence (Q13133 164-447): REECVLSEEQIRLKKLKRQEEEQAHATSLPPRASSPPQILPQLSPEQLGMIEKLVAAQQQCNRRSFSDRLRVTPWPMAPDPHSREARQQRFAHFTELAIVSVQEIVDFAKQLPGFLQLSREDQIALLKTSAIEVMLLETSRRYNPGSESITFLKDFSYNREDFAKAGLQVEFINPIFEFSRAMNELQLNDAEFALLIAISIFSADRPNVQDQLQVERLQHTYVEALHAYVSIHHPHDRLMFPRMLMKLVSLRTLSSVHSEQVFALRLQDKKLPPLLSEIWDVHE
Excerpt: as §1, §2, §3, §4

[6] = biological target: T3, LXRβ-GAL4 fusion protein (Homo sapiens, UniProt P55055); assay: LXRβ/GAL4 transactivation assay in HEK-293 cells; type: cell-based; conditions: 48 h
T3 construct: expressed in transfected cells; host or cells: HEK-293 (pcDNA3-LXRβ/GAL4)
T3 sequence (P55055 222-460 limits assumed): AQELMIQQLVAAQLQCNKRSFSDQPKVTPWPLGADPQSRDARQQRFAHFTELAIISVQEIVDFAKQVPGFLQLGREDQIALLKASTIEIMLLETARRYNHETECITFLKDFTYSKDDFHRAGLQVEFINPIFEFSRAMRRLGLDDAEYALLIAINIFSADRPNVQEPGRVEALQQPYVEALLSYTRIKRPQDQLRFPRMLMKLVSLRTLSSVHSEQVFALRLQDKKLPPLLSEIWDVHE
Method: (§5) Expression constructs were prepared by inserting the ligand binding domain (LBD) of human LXRα and LXRβ cDNAs adjacent to the yeast GAL4 transcription factor DNA binding domain (DBD) in the mammalian expression vector pcDNA3 to create pcDNA3-LXRα/GAL4 and pcDNA3-LXRβ/GAL4, respectively. The GAL4-responsive reporter construct, pUAS(5×)-tk-luc, contained 5 copies of the GAL4 response element placed adjacent to the thymidine kinase minimal promoter and the luciferase reporter gene. The transfection control vector, pEGFP-N1, contained the Green Fluorescence Protein (GFP) gene under the regulation of the cytomegalovirus promoter.
(§6) HEK-293 cells were seeded at 40,000 cells/well in 96 well plates in Dulbecco's modified Eagle medium (high glucose) containing 10% charcoal stripped fetal calf serum (FCS), 100 units/ml Penicillin G and 100 μg/ml Streptomycin sulfate at 37° C. in a humidified atmosphere of 5% CO2. After 24 h, transfections were performed with Lipofectamine (Gibco-BRL, Gaithersburg, Md.) according to the instructions of the manufacturer. […] Luciferase activity in cell extracts was determined using Luciferase Assay Buffer (Promega) in a ML3000 luminometer (Dynatech Laboratories). GFP expression was determined using the Tecan Spectrofluor Plus at excitation wavelength of 485 nm and emission at 535 nm. […]

[7] = HDL-raising activity in hamsters; type: in vivo, hamster; conditions: oral gavage 10 mg per kg twice per day, seven days, p=0.01
Method: HDL-Raising Activity: Hamsters were given Compound 4 by oral gavage at 10 mg per kg body weight, twice per day, for seven days. Blood was then collected and serum HDL cholesterol measured.

[8] = biological target: T4, LXRα-GAL4 fusion protein (Homo sapiens, UniProt Q13133); assay: LXRα/GAL4 transactivation assay in HEK-293 cells; type: cell-based; conditions: 48 h
T4 construct: expressed in transfected cells; host or cells: HEK-293 (pcDNA3-LXRα/GAL4)
T4 sequence (Q13133 209-447 limits assumed): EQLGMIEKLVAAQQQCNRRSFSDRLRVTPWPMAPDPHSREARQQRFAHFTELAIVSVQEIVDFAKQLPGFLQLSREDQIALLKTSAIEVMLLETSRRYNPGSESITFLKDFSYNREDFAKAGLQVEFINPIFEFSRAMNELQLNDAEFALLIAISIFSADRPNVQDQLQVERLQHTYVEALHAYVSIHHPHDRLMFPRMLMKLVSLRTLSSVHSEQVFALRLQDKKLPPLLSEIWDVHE
Method: as §5, §6

SMILES: CC(C)CC[C@H](O)[C@@H](C)[C@H]1CC[C@H]2[C@@H]3CC=C4C[C@@H](O)CC[C@]4(C)[C@H]3CC[C@]12C [22-(S)-hydroxy-cholesterol, reference compound]
Stimulation of cholesterol efflux (in words) [1]: did not stimulate cholesterol efflux at all | Activity on LXR (in words) [2]: inactive

SMILES: CC(C)CC[C@@H](O)[C@@H](C)[C@H]1CC[C@H]2[C@@H]3CC=C4C[C@@H](O)CC[C@]4(C)[C@H]3CC[C@]12C [Compound 2, 22(R)-hydroxycholesterol, reference compound]
Stimulation of cholesterol efflux ([1]; 5 μM, p<0.001): 57% | fold induction at 15 µM [3]: 6.7 ± 1.2

EC50 [1]: 120 nM | IC50 [4]: 442 nM | IC50 [5]: 112 nM
SMILES: CC(C)N(C(=O)[C@H]1CCC2C3CC=C4N(C)C(=O)CCC4(C)C3CCC21C)C(C)C (stereo partly shown) [Compound 3]

SMILES: CCCc1c(OCCCN2C(=O)CCNC2=O)ccc2c(C(F)(F)F)noc12 [Compound 4, 4,5-Dihydro-1-(3-(3-trifluoromethyl-7-propyl-benzisoxazol-6-yloxy)propyl)-2,6-pyrimidinedione]
EC50 [1]: 63 nM | EC50 [6]: 360 nM | Increase of serum HDL cholesterol levels vs vehicle control [7]: 21% | IC50 [4]: 72 nM | IC50 [5]: 1 nM | EC50 [8]: 183 nM
